# Test results: patent publication US5719121A, “Use of balhimycin as production promoter in animals, and production promoter compositions” (Hoechst Aktiengesellschaft, priority 1995, dated 1998)
# Tested on: broilers
# Test: Feeding experiment with balhimycin in broilers (floor management, 35 days): growth and feed utilization
# Type: in vivo
# Conditions: for Feed Intake, compared to the control value of 100% / Feed Utilization, compared to the control value of 100% / Live weight End, compared to the control value of 100% / Live weight Gain, compared to the control value of 100%: control = 100; for Feed Intake / Feed Utilization kg of FI/kg of LW / Live weight End: group mean
# Experimental: A feeding experiment with balhimycin was carried out in floor management using […] broilers (80 males and 80 females) which were divided into 5 groups:
# 1st group: untreated control
# 2nd group: balhimycin, 15 mg/kg of feed
# 3rd group: balhimycin, 30 mg/kg of feed
# 4th group: balhimycin, 45 mg/kg of feed
# 5th group: balhimycin, 60 mg/kg of feed
# The feed had the following composition (Table 1):
# The animals were kept in boxes of 40 animals each and were given the feed mixtures for 35 days in accordance with their group assignment.
# In Table 2, the first number in each column directed to weight change, feed intake, and feed utilization, indicates the number average for the broilers in each group. The second number indicates the standard deviation of the data. The third number indicates the percent difference of each group as compared to the control value of 100%.
# Different letters (a, b, ab, c) in the gain column denote significant differences between the groups (P<0.05). Values having the same letter or letters indicate that there is no significant difference between the groups.
compound,measurement,setting,value
CNC(CC(C)C)C(=O)NC1C(=O)NC(CC(N)=O)C(=O)NC2C(=O)NC3C(=O)NC(C(=O)NC(C(=O)O)c4cc(O)cc(O)c4-c4cc3ccc4O)C(OC3C[C@](C)(N)C(=O)C(C)O3)c3ccc(c(Cl)c3)Oc3cc2cc(c3OC2O[C@H](CO)C(O)[C@H](O)C2O)Oc2ccc(cc2Cl)C1O (stereo partly shown) [Balhimycin],"Feed Intake, compared to the control value of 100%",balhimycin 15 mg/kg of feed,99.9%
same,"Feed Utilization, compared to the control value of 100%",balhimycin 15 mg/kg of feed,92.0%
same,"Live weight End, compared to the control value of 100%",balhimycin 15 mg/kg of feed,108.1%
same,"Live weight Gain, compared to the control value of 100%",balhimycin 15 mg/kg of feed,108.4%
same,Feed Intake,balhimycin 15 mg/kg of feed,72.5 g/day
same,Feed Utilization kg of FI/kg of LW,balhimycin 15 mg/kg of feed,1.62 kg of FI/kg of LW
same,Live weight End,balhimycin 15 mg/kg of feed,1602.0 g
same,"Feed Intake, compared to the control value of 100%",balhimycin 30 mg/kg of feed,100.6%
same,"Feed Utilization, compared to the control value of 100%",balhimycin 30 mg/kg of feed,93.8%
same,"Live weight End, compared to the control value of 100%",balhimycin 30 mg/kg of feed,110.7%
same,"Live weight Gain, compared to the control value of 100%",balhimycin 30 mg/kg of feed,110.8%
same,Feed Intake,balhimycin 30 mg/kg of feed,75.3 g/day
same,Feed Utilization kg of FI/kg of LW,balhimycin 30 mg/kg of feed,1.65 kg of FI/kg of LW
same,Live weight End,balhimycin 30 mg/kg of feed,1640.0 g
same,"Feed Intake, compared to the control value of 100%",balhimycin 45 mg/kg of feed,100.6%
same,"Feed Utilization, compared to the control value of 100%",balhimycin 45 mg/kg of feed,92.0%
same,"Live weight End, compared to the control value of 100%",balhimycin 45 mg/kg of feed,109.1%
same,"Live weight Gain, compared to the control value of 100%",balhimycin 45 mg/kg of feed,109.3%
same,Feed Intake,balhimycin 45 mg/kg of feed,73.0 g/day
same,Feed Utilization kg of FI/kg of LW,balhimycin 45 mg/kg of feed,1.62 kg of FI/kg of LW
same,Live weight End,balhimycin 45 mg/kg of feed,1617.0 g
same,"Feed Intake, compared to the control value of 100%",balhimycin 60 mg/kg of feed,100.7%
same,"Feed Utilization, compared to the control value of 100%",balhimycin 60 mg/kg of feed,93.2%
same,"Live weight End, compared to the control value of 100%",balhimycin 60 mg/kg of feed,108.0%
same,"Live weight Gain, compared to the control value of 100%",balhimycin 60 mg/kg of feed,108.1%
same,Feed Intake,balhimycin 60 mg/kg of feed,73.1 g/day
same,Feed Utilization kg of FI/kg of LW,balhimycin 60 mg/kg of feed,1.64 kg of FI/kg of LW
same,Live weight End,balhimycin 60 mg/kg of feed,1600.0 g
